Measured values reported in patent US9682931B2, “Aryloyl(oxy or amino)pentafluorosulfanylbenzene compound, pharmaceutically acceptable salt thereof, and prodrugs thereof” (UBE INDUSTRIES, LTD., priority 2013, dated 2017).

Tests used:
[1] = test system: TNF-α mRNA expression in RBL-2H3 cells; assay: Validation test in RBL-2H3 cell: TNF-α mRNA expression by antigen stimulation (Real-time PCR); type: cell-based, Rat; settings: for TNF-α mRNA expression level: untreated control as 100
Experimental: 2. Validation Test in RBL-2H3 Cell
(Effect on Inflammation Mediator mRNA Expression by Antigen Stimulation)
After a cell model for an allergic reaction, RBL-2H3 cells, were stimulated by an antigen, mRNA expression level of a typical inflammation mediator, TNF-α, in the cell was measured by a Real-time PCR method. In this manner, a confirmation test for anti-inflammatory effect of Compound 3 was performed.
A test substance (Compound 3) (50 mg) was dissolved by adding 50 vol % ethanol (1 mL) to this to obtain an ethanol solution having a concentration of 50 mg/mL. The resultant solution was diluted with a medium. […] As a control (for comparison), Wortmannin (10 μM) was used. Herein, the concentrations were all indicated as the concentrations in cell supernatants.
RBL-2H3 cells were sensitized with anti-DNP-IgE antibody for 2 hours. A medium or a test solution was added and heat was applied at 37° C. for 10 minutes and then, a DNP-HSA solution was added. A reaction was carried out at 37° C. for 30 minutes. After completion of the reaction, total RNA was extracted from a cell fraction and cDNA was synthesized by use of Random Primer and Reverse Transcriptase. After a specific primer for a desired gene (ITNF-α,β-actin) was added, a Real-time PCR method was carried out in accordance with SYBR Green method using the resultant cDNA as a template to determine the expression level of mRNA. The expression ratio of the desired gene relative to a housekeeping gene, β-actin, was calculated. In this manner, a change in expression level relative to an untreated control was calculated.
Main test conditions and outline of the operation will be described below.
Cell: Rat basophil leukemic cell, RBL-2H3 [Human Sciences Foundation]
Antigen stimulation: Anti-DNP-IgE antibody, DNP labeled albumin
[Sigma-Aldrich Corporation]
Desired genes: IL-4, MCP-1, TNF-α, β-actin (housekeeping gene)
Measurement apparatus: StepOnePlus Real-Time PCR System [Life
Technologies Corporation] Measurement conditions: 95° C. (20 sec)→{95° C. (3 sec)→60° C. (30 sec)}×40 cycles
mRNA expression level (%) was obtained based on the expression level of the untreated control as 100.

[2] = test system: lumen formed in angiogenesis kit with VEGF-A; assay: Angiogenesis inhibitory action (angiogenesis kit, VEGF-A, CD31 staining, area and length of lumen); type: cell-based; settings: 5 μg/mL, VEGF-A 10 ng/mL, 11 days
Text: Angiogenesis Inhibitory Action
The angiogenesis inhibitory action of a test substance (Compound 3) was examined by use of measuring reagents and analysis software described below.
1. Measuring Reagents and Analysis Software
Angiogenesis kit (Cat. No. KZ-1000), manufactured by KURABO INDUSTRIES LTD.
Angiogenic agent VEGF-A (Cat. No. KZ-1350), manufactured by KURABO INDUSTRIES LTD.
Lumen staining kit (for staining CD31, Cat. No. ZHA-1225), manufactured by KURABO INDUSTRIES LTD.
Image analysis software: Angiogenesis Image Analyzer V2.0, manufactured by KURABO INDUSTRIES LTD.
Herein, as a culture medium, angiogenesis specific medium-2 (hereinafter referred to as the medium) provided in the above angiogenesis kit.
Positive control: Medium containing VEGF-A (10 ng/mL)
Negative control: Medium containing VEGF-A (10 ng/mL) and Suramin (50 μmol/L)
3. Preparation of Samples
A test substance was weighed at the starting day of a test. The medium was added so as to be 500 μg/mL. Sonication was performed while heating at 37° C. for 60 minutes to be dissolved. Then, filtration was performed by a 0.22 μm filter. The 500 μg/mL-solution was serially diluted with the medium in a common ratio of 10. […]
The pictures were subjected to image analysis by use of image analysis software, Angiogenesis Image Analyzer V 2.0, and the area and length of the lumen formed were measured.

## O=C(Nc1ccc(S(F)(F)(F)(F)F)cc1)c1cc(O)c(O)c(O)c1 [Compound 3, 4-(3,4,5-trihydroxybenzoylamino)pentafluorosulfanylbenzene]
[1]; RBL-2H3 cells, antigen stimulation
  suppression of TNF-α mRNA expression: Suppression of the mRNA expression TNF-α, one of inflammatory mediators, was confirmed
[1]; sample 1 μg/mL
  TNF-α mRNA expression level: 87%
[1]; sample 10 μg/mL
  TNF-α mRNA expression level: 69%
[2]
  angiogenesis inhibitory effect (area and length of lumen): angiogenesis inhibitory effect was confirmed
